Reference: ChEMBL document CHEMBL4371002 (J Med Chem, 2018)

Key:
[1] = biological target: T1, 3-oxo-5-alpha-steroid 4-dehydrogenase 1 (Homo sapiens, UniProt P18405); assay type: cell-based, HEK293
T1 sequence (P18405 whole entry): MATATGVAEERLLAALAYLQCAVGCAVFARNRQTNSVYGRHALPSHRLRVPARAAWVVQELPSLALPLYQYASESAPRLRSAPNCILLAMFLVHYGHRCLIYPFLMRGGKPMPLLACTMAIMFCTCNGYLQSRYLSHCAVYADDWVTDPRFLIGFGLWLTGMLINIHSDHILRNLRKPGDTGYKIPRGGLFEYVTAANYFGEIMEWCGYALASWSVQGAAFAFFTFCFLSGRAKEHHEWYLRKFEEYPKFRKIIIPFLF

[2] = biological target: T2, 3-oxo-5-alpha-steroid 4-dehydrogenase 2 (Homo sapiens, UniProt P31213)
T2 sequence (P31213 whole entry): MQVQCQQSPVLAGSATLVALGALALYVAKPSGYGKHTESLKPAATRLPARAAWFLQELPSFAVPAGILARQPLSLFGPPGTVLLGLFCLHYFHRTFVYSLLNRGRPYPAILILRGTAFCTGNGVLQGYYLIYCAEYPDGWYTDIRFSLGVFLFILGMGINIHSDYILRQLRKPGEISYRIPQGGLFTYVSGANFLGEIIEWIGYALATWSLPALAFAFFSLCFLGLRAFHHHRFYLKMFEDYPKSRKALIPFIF

[3] = biological target: T2, 3-oxo-5-alpha-steroid 4-dehydrogenase 2; remark: listed apart in the source
[4] = biological target: T3, 3-oxo-5-alpha-steroid 4-dehydrogenase 2 (Rattus norvegicus, UniProt P31214)
T3 sequence (P31214 whole entry): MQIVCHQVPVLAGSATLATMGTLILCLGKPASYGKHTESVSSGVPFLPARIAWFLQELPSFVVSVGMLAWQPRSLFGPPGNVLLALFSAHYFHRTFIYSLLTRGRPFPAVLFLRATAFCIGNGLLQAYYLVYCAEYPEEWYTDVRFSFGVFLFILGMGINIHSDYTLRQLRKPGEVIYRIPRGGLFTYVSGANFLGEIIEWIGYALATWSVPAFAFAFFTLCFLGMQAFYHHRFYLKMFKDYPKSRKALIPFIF

[5] = biological target: T1, 3-oxo-5-alpha-steroid 4-dehydrogenase 1
[6] = biological target: T4, 3-oxo-5-alpha-steroid 4-dehydrogenase 1 (Rattus norvegicus, UniProt P24008)
T4 sequence (P24008 whole entry): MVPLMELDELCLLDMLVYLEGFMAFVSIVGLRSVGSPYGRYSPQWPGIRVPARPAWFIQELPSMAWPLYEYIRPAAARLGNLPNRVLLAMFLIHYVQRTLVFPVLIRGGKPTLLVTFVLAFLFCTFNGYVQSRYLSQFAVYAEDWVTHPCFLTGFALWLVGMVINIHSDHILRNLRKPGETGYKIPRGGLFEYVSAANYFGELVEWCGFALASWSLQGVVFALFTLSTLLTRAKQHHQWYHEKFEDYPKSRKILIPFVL

[7] = biological target: Tyrosine-protein phosphatase non-receptor type 1 (Homo sapiens, UniProt P18031); assay type: cell-based, Sf9
Sequence of Tyrosine-protein phosphatase non-receptor type 1 (P18031 whole entry): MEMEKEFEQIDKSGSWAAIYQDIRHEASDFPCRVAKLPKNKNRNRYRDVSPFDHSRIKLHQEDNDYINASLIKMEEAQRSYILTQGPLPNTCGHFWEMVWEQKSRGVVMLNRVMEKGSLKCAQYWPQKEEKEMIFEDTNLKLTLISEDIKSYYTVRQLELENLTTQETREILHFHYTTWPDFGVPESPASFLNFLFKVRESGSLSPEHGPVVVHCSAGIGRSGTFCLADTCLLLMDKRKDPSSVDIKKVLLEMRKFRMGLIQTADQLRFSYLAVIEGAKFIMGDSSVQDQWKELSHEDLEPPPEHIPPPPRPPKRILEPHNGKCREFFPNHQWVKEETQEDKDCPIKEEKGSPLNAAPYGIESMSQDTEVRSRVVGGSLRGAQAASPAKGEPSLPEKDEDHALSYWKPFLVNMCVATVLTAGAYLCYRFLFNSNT

Structure (SMILES) | IC50 [1] [nM] | IC50 [2] [nM] | IC50 [3] [nM] | IC50 [4] [nM] | IC50 [5] [nM] | IC50 [6] [nM] | EC50 [7] [nM]
CC(C)(C)NC(=O)[C@H]1CC[C@H]2[C@@H]3CC[C@H]4NC(=O)C=C[C@]4(C)[C@H]3CC[C@]12C [FINASTERIDE] | 650 | 58 | 0.18 to 11.3 | 32 | 150 to 470 | 30 | –
O=C(c1ccccc1)C(Cc1ccc(C(F)(F)P(=O)(O)O)c(Br)c1)c1ccccc1 (configuration not stated) | – | – | – | – | – | – | 1200
